Assay results from patent US4873081A, “Percutaneous absorption preparation” (priority 1986, dated 1989).
Structures can show the parent of a compound that is named as a salt.

Experiments:
[1] = in vivo; parameters: species or system male Wistar rats; details: rat, topical or ocular; for AUC(0-t) at 36 h: AUC (0-36 hours)
From the text: In Table 1, the results obtained are shown. The calcium salts of the anti-inflammatory drugs in the ointment were absorbed to a much greater degree than the indomethacin (Rp. 1).

[2] = system: shaved back skin; parameters: species or system male rabbits; details: rabbit, in vivo
Experimental: The evaluation of skin reactions was done by the erythema and edema scores 24 and 72 hours after application.

[3] = system: adjuvant arthritis induced with M. butyricum; assay: Adjuvant arthritis induced with M. butyricum; type: in vivo, male Wistar rats; details: for Inhibition: adjuvant arthritis; for Inhibition / Foot volume: day 16, mean ± S.D. of 6 rats; for Foot volume: 0.14 g gel ointment every other day from day 11 to 15, *p <0.05 vs control
Experimental: (§1) Experimental carrageenan edema was induced in groups of six male Wistar rats weighing 150-160 g. […] The gel without the drug was similarly applied to the control group. The treated area was immediately covered by aluminum foil and adhesive tape. Six hours later, 1% carrageenan solution was injected subcutaneously into the sole of the right hindpaw. The volumes of both hindpaw were measured hourly using a plethysmometer and the edema volume was calculated from the difference between the injected and non-injected paws. FIG. 3 indicates the effect on the carrageenan-induced paw edema of these ointments applied topically.
M. butyricum (Difco Lab., USA) suspended in paraffin oil was injected into the sole of right hindpaw of male Wistar rats weighing 150-160 g. […] The edema volumes were calculated by measuring the volumes of both hindpaws on day 16, according to the same procedure as described in Example 9.

[4] = Absorption of the active ingredient from other bases or with other promoters; details: calcium thioglycolate as absorption promoter
[5] = system: carrageenan-induced paw edema; assay: Carrageenan-induced edema in hindpaw of rat; type: in vivo, male Wistar rats; details: 0.14 g gel ointment on abdominal skin 6 h before carrageenan
Experimental: as §1

[6] = Plasma concentration of indomethacin during multiple percutaneous dosing of ointment to rats; type: in vivo, male Wistar rats; details: 0.14 g per 1.0×1.0 cm
Experimental: The hair of the abdominal area of male Wistar rats weighing 250-300 g was removed in the same manner as described in Example 6. […] The rats were fixed in the Bollman cages for 24 hours. The ointment remained in contact with the skin for 24 hours, and then the unabsorbed ointment was wiped off. Subsequently, second and third applications of the ointment (0.14 g, 1.0×1.0 cm area) were made at different positions on the abdomen similar to the first application. The drug concentrations were determined by the same procedure as described in Example 6. FIG. 2 depicts the plasma indomethacin concentrations after the topical application of these ointments.

Structure (SMILES)	AUC(0-t) at 36 h [1]	Bioavailability [1]	AUC (0-36 hours) [1]	erythema produced by the ointment [2]	irritation produced by the ointment [2]	Inhibition [3]	Foot volume [3]	other results
O=C(O)COc1nn(Cc2ccccc2)c2ccccc12 [Bendazac calcium]	460 ± 31.5 µg·h/mL	–	–	–	–	–	–	–
O=C(O)Cc1ccccc1Nc1c(Cl)cccc1Cl [Diclofenac calcium]	465 ± 32.4 µg·h/mL	–	–	–	–	–	–	–
O=C(O)c1ccccc1Nc1cccc(C(F)(F)F)c1 [Flufenamate calcium]	463 ± 18.9 µg·h/mL	–	–	–	–	–	–	–
COc1ccc2c(c1)c(CC(=O)O)c(C)n2C(=O)c1ccc(Cl)cc1 [Indomethacin calcium, Calcium salt of indomethacin]	–	70.3 ± 4.1%	473.4 ± 16.5 µg·h/mL	only slight erythema	nearly negligible	51.0 ± 7.6%	2.38 ± 0.12 mL	inhibitory effect on adjuvant arthritis ([3]; compared with indomethacin ointment): significant inhibitory effect, to the same extent as the indomethacin ointment; absorption of the active ingredient on addition of calcium thioglycolate [4]: dramatically decrease the absorption; inhibitory effect on carrageenan-induced paw edema [5]: significantly higher inhibitory effect; absorption through the skin compared with indomethacin ([6]; three 24 h applications): readily and quickly absorbed through the skin compared with indomethacin; plasma levels after application of the gel ointment ([6]; multiple dosing, vs indomethacin ointment): much higher plasma levels
COc1ccc2c(c1)c(CC(=O)O)c(C)n2C(=O)c1ccc(Cl)cc1 [Indomethacin, indomethacin, reference compound]	–	7.3 ± 1.4%	50.4 ± 7.8 µg·h/mL	only slight erythema	nearly negligible	55.4 ± 10.5%	2.32 ± 0.16 mL	–
Cc1cccc(Nc2ccccc2C(=O)O)c1C [Mefenamate calcium, Calcium mefenamate]	470 ± 40.5 µg·h/mL	–	–	–	–	–	–	–
